# From patent USRE49873E1, “APP specific bace inhibitors (ASBIs) and uses thereof” (BUCK INSTITUTE FOR RESEARCH ON AGING, priority 2012, dated 2024)
# Experiments:
# [1] = system: BACE1 cleavage of neuregulin1 in HEK293 cells; experiment: Neuregulin1 shedding assay (SEAP-NRG1-β1); assay type: cell-based, human; conditions: 10 μM, HEK293 cells co-expressing BACE1
# Description: Chinese Hamster Ovary (CHO) cells stably over-expressing human APP were treated with 10 μM Galangin or DMSO for 24 hr, then the cell lysates and conditioned media were collected. The levels of full length APP and β-CTF in the cell lysates and the levels of sAPPα in the conditioned media were detected by western blot. […] BACE1-dependent cleavage of SEAP-NRG1-β1 was evaluated by SEAP assays with supernatants of control human embryonic kidney 293 (HEK293) cells (SEAP-NRG1-β1) or HEK293 cells co-expressing BACE1 (SEAP-NRG1-β1+BACE1), treated with DMSO or Galangin (10 μM). An increase in shedding of the SEAP-NRG1-b1 fusion protein was measured upon BACE1 co-expression. Shedding in co-expressing cells was not suppressed by Galangin. Error bars indicate SEM. (N.S., p>0.05; n=4, student t test).
# A cDNA construct encoding a human placental secreted alkaline phosphatase (SEAP)-NRG1 (pAPtag5-NRG1-β1) fusion protein was transfected in HEK293 cells in a 6-well format with or without full-length wild-type BACE1 using Lipofectamine 2000 (Invitrogen) as described previously (Vassar et al. (1999) Science, 286: 735-741). After transfection the medium was replaced with DMEM containing 10% heat-inactivated Fetal Bovine Serum and incubated for 24 hr. SEAP activity was measured in the conditioned medium. […] The absorbance was read at 405 nm. […]
# [2] = in vivo; design: species or system mice; conditions: mouse
# Description: The brain penetrance of galangin and progalangin were assessed in a standard PK comprising subcutaneous (Sub-Q) injection of 5 adult non-transgenic mice with 50 ul of a 5 mg/ml stock of compound in dimethylsulfoxide (DMSO) or a dose of 10 mg/kg for a 25 g mouse. Injected mice were anesthetized with ketamine/xylazine at 1, 2, 4, 6, and 8 hours and blood collected by cardiac puncture. The mice were then perfused with saline and brain tissue dissected and snap frozen on dry ice. Blood was centrifuged at 3000 rpm for 10 minutes and the plasma supernatant collected. Both plasma and the right hemibrain were sent to Integrated Analytical Solutions (IAS, Berkeley, Calif.) with a reference sample of compound for compound level analysis in tissue and plasma. The compound levels were determined using a LC-MS/MS approach.
# CNS exposure studies were performed and consisted of a time-course design to collect heparinized plasma and brains. Following sc administration of the galangin or progalangin (compound-2) at 10 mg/kg, plasma and brain levels of the compounds were determined by quantitative LC/MS/MS methodology. Plasma samples were precipitated with acetonitrile:methanol (1:1) cocktail containing an internal standard. The brain samples were homogenized directly in ethylacetate or extracted from 5M guanidine homogenates with the liquid-liquid method. The resulting supernatant was evaporated to dryness and subjected to the LC/MS/MS analysis. For each compound 5 mice were used for the analysis. The brain-to-plasma ratios and plasma/brain Cmax levels were then determined (see, e.g., FIG. 8).
# [3] = molecular target: T1, TRX-eAPP575-624 (Homo sapiens, UniProt P05067); experiment: Surface plasmon resonance binding to APP ectodomain fragments; conditions: FIG. 5B
# T1 construct: thioredoxin (TRX) and residues 575-624 of the ectodomain; made in house
# T1 sequence (P05067 650-699): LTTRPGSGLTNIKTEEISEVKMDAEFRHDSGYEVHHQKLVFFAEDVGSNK
# Description: Three fusion proteins were immobilized via amine coupling using 20 mM phosphate, 125 mM sodium chloride pH 7.4. The three proteins were MBP-eAPP230-624—a fusion protein containing maltose binding protein (MBP) and residues 230624 of the ectodomain of APP (90-kDa) (FC4), eAPP230-624—a protein that contains only residues 230-624 (45-kDa)(FC2), and TRX-eAPP575-624—a fusion protein containing thioredoxin (TRX) and residues 575-624 of the ectodomain (20 -kDa) (FC3). The proteins were produced as described in Libeu, et al. (2011) J. Alzheimers Dis., 25(3): 547-566 Libeu et al (2011). The flow cell FC1 was used as a control. Galangin was diluted from 10 mM solutions in DMSO to 50 μM in 1% DMSO, 20 mM sodium phosphate pH 7.4, 125 mM sodium chloride, 0.05% Tween and then serially diluted by 1.5 for 10 steps. Binding traces were recorded for each dilution with a binding phase of 60 seconds and a dissociation phase of 240 seconds. Each cycle was performed at 20° C. with a constant flow rate of 20 μl/min. […]
# The binding affinity of the compounds for the ectodomain of APP was determined using SPR. […] Galangin at various concentrations were used in the flow through over the chip and the plasmon resonance signal was determined using a Biacore T100 (FIG. 5B).
structure (smiles),measurement,setting,value
O=c1c(O)c(-c2ccccc2)oc2cc(O)cc(O)c12 [Galangin],BACE1-dependent shedding of SEAP-NRG1-β1,[1],does not inhibit BACE1 cleavage of neuregulin1
same,brain penetration,[2],did show some brain penetration
same,plasma levels versus brain tissue levels,[2],Plasma levels were greater than brain tissue levels
same,brain Cmax of galangin,"[2]; sc, 10 mg/kg",~50 ng/g
same,brain to plasma ratio,"[2]; sc, 10 mg/kg",1:10
same,concentration at 1 h,"[2]; sc, 10 mg/kg",40 ng/g
same,binding to APP by SPR,[3],demonstrated binding to the APP substrate
